Source: patent US10428087B2, “Pyrimidinones as PI3K inhibitors” (Incyte Corporation, priority 2009, dated 2019)
Counter-ions that a name gives are not always drawn.

tested on: Pfeiffer cell line (diffuse large B cell lymphoma); experiment: Pfeiffer cell proliferation assay (Example B2); type: cell-based; conditions: Homo sapiens, Pfeiffer, Pfeiffer cells, [3H]-thymidine
Description: Pfeiffer cell line (diffuse large B cell lymphoma) was purchased from ATCC (Manassas, Va.) and maintained in the culture medium recommended (RPMI and 10% FBS). To measure the anti-proliferation activity of the PI3Kδ submittals, the Pfeiffer cells were plated with the culture medium (2×10^3 cells/well/per 200 μl) into 96-well ultra-low binding plates (Corning, Corning, N.Y.), in the presence or absence of a concentration range of test compounds. After 3-4 days, [^3H]-thymidine (1 μCi/well) (PerkinElmer, Boston, Mass.) in PBS was then added to the cell culture for an additional 12 hrs before the incorporated radioactivity was separated by filtration with water through GF/B filters (Packard Bioscience, Meridenj, Conn.) and measured by liquid scintillation counting with a TopCount (Packard Bioscience). See Table 3 for data related to compounds of the invention.

| Compound | IC50 |
| --- | --- |
| Cc1cccc2nc(C(C)Nc3ncnc4[nH]cnc34)c(-c3ccccc3)c(=O)n12 (stereo not shown) [Example 49, 6-Methyl-3-phenyl-2-[1-(9H-purin-6-ylamino)ethyl]-4H-pyrido[1,2-a]pyrimidin-4-one trifluoroacetic acid salt] | 50 to 100 nM |
| Cc1csc2nc(C(C)Nc3ncnc4[nH]cnc34)c(-c3cc(F)cc(F)c3)c(=O)n12 (stereo not shown) [Example 12, 6-(3,5-difluorophenyl)-3-methyl-7-[1-(9H-purin-6-ylamino)ethyl]-5H-[1,3]thiazolo[3,2-a]pyrimidin-5-one] | 100 to 500 nM |
| Cc1csc2nc([C@H](C)Nc3ncnc4[nH]ccc34)c(-c3cc(F)cc(F)c3)c(=O)n12 [Example 17, 6-(3,5-difluorophenyl)-3-methyl-7-[1-(7H-pyrrolo[2,3-d]pyrimidin-4-ylamino)ethyl]-5H-[1,3]thiazolo[3,2-a]pyrimidin-5-one] | 100 to 500 nM |
| Cc1cccc2nc(C(C)Nc3ncnc4[nH]cnc34)c(-c3ccccc3Cl)c(=O)n12 (stereo not shown) [Example 57, 3-(2-Chlorophenyl)-6-methyl-2-[1-(9H-purin-6-ylamino)ethyl]-4H-pyrido[1,2-a]pyrimidin-4-one trifluoroacetic acid salt] | 50 to 100 nM |
| Cc1cccc2nc(C(C)Nc3ncnc4[nH]cnc34)c(-c3ccc(F)c(F)c3)c(=O)n12 (stereo not shown) [Example 68, 3-(3,4-Difluorophenyl)-6-methyl-2-[1-(9H-purin-6-ylamino)ethyl]-4H-pyrido[1,2-a]pyrimidin-4-one trifluoroacetic acid salt] | 500 to 1000 nM |
| Cc1cccc2nc(C(C)Nc3nc(N)nc4[nH]cnc34)c(-c3ccccc3)c(=O)n12 (stereo not shown) [Example 50, 2-{1-[(2-Amino-9H-purin-6-yl)amino]ethyl}-6-methyl-3-phenyl-4H-pyrido[1,2-a]pyrimidin-4-one trifluoroacetic acid salt] | < 50 nM |
| Cc1csc2nc(C(C)Nc3nc(N)nc4[nH]cnc34)c(-c3cc(F)cc(Cl)c3)c(=O)n12 (stereo not shown) [Example 35, 7-{1-[(2-amino-9H-purin-6-yl)amino]ethyl}-6-(3-chloro-5-fluorophenyl)-3-methyl-5H-[1,3]thiazolo[3,2-a]pyrimidin-5-one trifluoroacetic acid salt] | < 50 nM |
| CC(Nc1ncnc2[nH]cnc12)c1nc2scc(C(F)(F)F)n2c(=O)c1-c1cccc(F)c1 (stereo not shown) [Example 48, 6-(3-Fluorophenyl)-7-[1-(9H-purin-6-ylamino)ethyl]-3-(trifluoromethyl)-5H-[1,3]thiazolo[3,2-a]pyrimidin-5-one] | 50 to 100 nM |
| Cc1cccc2nc(C(C)Nc3ncnc4[nH]cnc34)c(-c3cccc(Cl)c3)c(=O)n12 (stereo not shown) [Example 53, 3-(3-Chlorophenyl)-6-methyl-2-[1-(9H-purin-6-ylamino)ethyl]-4H-pyrido[1,2-a]pyrimidin-4-one trifluoroacetic acid salt] | 50 to 100 nM |
| CC(Nc1nc(N)nc2[nH]cnc12)c1nc2sccn2c(=O)c1-c1cc(F)cc(F)c1 (stereo not shown) [Example 24, 7-{1-[(2-amino-9H-purin-6-yl)amino]ethyl}-6-(3,5-difluorophenyl)-5H-[1,3]thiazolo[3,2-a]pyrimidin-5-one] | 100 to 500 nM |
| Cc1csc2nc(C(C)Nc3ncnc4[nH]cnc34)c(-c3cccc(F)c3F)c(=O)n12 (stereo not shown) [Example 41, 6-(2,3-difluorophenyl)-3-methyl-7-[1-(9H-purin-6-ylamino)ethyl]-5H-[1,3]thiazolo[3,2-a]pyrimidin-5-one trifluoroacetic acid salt] | 50 to 100 nM |
| Cc1csc2nc(C(C)Nc3nc(N)nc4[nH]cnc34)c(-c3ccccc3F)c(=O)n12 (stereo not shown) [Example 33, 7-{1-[(2-amino-9H-purin-6-yl)amino]ethyl}-6-(2-fluorophenyl)-3-methyl-5H-[1,3]thiazolo[3,2-a]pyrimidin-5-one trifluoroacetic acid salt] | < 50 nM |
| Cc1cccc2nc(C(C)Nc3ncnc4[nH]cnc34)c(-c3cccc(F)c3F)c(=O)n12 (stereo not shown) [Example 66, 3-(2,3-Difluorophenyl)-6-methyl-2-[1-(9H-purin-6-ylamino)ethyl]-4H-pyrido[1,2-a]pyrimidin-4-one trifluoroacetic acid salt] | 100 to 500 nM |
